From patent US11466019B2, “Triazolo[4,5-d] pyramidine derivatives and their use as purine receptor antagonists” (Vernalis (R&D) Limited, priority 2008, dated 2022) come the findings set out here.

Read-outs that look alike come from different tables or passages of the source.

Test [1] has as its target T1, human adenosine A1 receptors (Homo sapiens, UniProt P30542).
T1 construct: expressed in transfected cells; host or cells: CHO-K1
T1 sequence (P30542 1-326): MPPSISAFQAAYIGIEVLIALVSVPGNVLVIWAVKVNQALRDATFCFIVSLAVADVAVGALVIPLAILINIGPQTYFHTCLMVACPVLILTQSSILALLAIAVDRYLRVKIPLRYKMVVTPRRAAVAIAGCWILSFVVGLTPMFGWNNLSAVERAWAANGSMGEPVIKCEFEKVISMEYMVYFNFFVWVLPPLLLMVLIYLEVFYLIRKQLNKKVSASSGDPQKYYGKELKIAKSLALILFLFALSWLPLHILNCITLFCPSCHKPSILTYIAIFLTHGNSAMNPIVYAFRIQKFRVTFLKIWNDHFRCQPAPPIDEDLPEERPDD
Nature of the test: Adenosine receptor binding: binding affinities at hA1 receptors ([3H]DPCPX displacement). The settings on record: for Ki: read-out: Binding Affinity hA1-Ki; for Binding Selectivity A1/A2a: ratio of Ki values. The protocol:
Adenosine Receptor Binding: Binding Affinities at hA1 Receptors
The resultant homogenate was kept for immediate use in the binding.
(§1) Binding assays were performed in a total volume of 250 μL, containing [^3H]-DPCPX (3.0 nM), membranes and additional drugs. Total binding was determined using drug dilution buffer (50 mM Tris-HCl pH:7.5, 10 mM MgCl2, 5% DMSO). Non-specific binding was determined using 300 μM N6-cyclohexyladenosine (CHA). […] Filters were left to dry overnight, and Microscint-0 scintillation fluid was then added to the filters. The filters were then left for at least 2 hours before the radioactivity was assessed using a Canberra Packard TopCount microplate scintillation counter.
To determine the free ligand concentration, three vials were counted with 25 μL of [^3H]DPCPX containing 4 mL of Ultima-Gold MV scintillant on a Beckman LS6500 multi-purpose scintillation counter.
(§2) Data was analysed using a 4 parameter logistical equation and non-linear regression which yields affinity constants (pIC50), and slope parameters:
(§3) [formula] where E is the quantity of binding and [A] is the competitor concentration. The Ki is then determined using the Cheng-Prusoff equation: […]

The target in test [2] is T2, human adenosine A2A receptors (Homo sapiens, UniProt P29274).
T2 construct: host or cells: HEK-293
T2 sequence (P29274 whole entry): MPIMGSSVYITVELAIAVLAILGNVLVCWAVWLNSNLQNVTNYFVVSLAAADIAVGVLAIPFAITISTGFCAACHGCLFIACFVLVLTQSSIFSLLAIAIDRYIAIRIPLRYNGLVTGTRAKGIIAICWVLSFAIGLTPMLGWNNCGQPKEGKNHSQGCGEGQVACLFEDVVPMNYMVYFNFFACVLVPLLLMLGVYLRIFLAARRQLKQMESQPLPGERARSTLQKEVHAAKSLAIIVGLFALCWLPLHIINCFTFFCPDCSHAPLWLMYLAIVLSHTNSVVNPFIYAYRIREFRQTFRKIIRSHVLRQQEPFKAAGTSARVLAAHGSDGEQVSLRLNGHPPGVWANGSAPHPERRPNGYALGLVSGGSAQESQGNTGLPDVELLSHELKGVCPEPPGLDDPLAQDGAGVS
Nature of the test: Adenosine receptor binding: binding affinities at hA2A receptors ([3H]CGS-21680 displacement). The following applies: read-out: Binding Affinity hA2A-Ki. The method, then: Adenosine Receptor Binding: Binding Affinities at hA2A Receptors
as §1, with “The resultant homogenate was kept for immediate use in the binding assay. Binding” for “Binding”, “[^3H]-CGS21680 (20.0” for “[^3H]-DPCPX (3.0”, “pH 7.5,” for “pH:7.5,”, “CHA.” for “N6-cyclohexyladenosine (CHA).”
To determine the free ligand concentration, three vials were counted with 25 μL of [^3H]CGS21680 containing 4 mL of Ultima-Gold MV scintillant on a Beckman LS6500 multi-purpose scintillation counter.
as §2, §3

The target of the next test is T3, hA2B receptors (Homo sapiens, UniProt P29275).
T3 construct: host or cells: HEK-293
T3 sequence (P29275 1-332): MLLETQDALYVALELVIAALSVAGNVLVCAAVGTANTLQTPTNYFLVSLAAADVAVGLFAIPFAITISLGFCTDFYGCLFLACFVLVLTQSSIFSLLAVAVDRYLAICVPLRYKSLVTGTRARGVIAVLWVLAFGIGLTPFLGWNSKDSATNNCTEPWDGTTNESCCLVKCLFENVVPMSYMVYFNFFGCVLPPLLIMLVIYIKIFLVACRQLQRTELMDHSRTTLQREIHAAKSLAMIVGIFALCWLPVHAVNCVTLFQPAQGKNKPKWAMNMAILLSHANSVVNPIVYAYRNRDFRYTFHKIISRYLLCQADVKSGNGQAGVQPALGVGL
Nature of the test: Adenosine receptor binding: binding affinities at hA2B receptors ([3H]-ZM241385 displacement). The settings on record: for Ki: read-out: Binding Affinity hA2B-Ki; for Binding Selectivity A2b/A2a: ratio of Ki values.

The target in test [3] is T4, human adenosine A3 receptors (Homo sapiens, UniProt P0DMS8).
T4 construct: expressed in transfected cells; host or cells: CHO-K1
T4 sequence (P0DMS8 1-318): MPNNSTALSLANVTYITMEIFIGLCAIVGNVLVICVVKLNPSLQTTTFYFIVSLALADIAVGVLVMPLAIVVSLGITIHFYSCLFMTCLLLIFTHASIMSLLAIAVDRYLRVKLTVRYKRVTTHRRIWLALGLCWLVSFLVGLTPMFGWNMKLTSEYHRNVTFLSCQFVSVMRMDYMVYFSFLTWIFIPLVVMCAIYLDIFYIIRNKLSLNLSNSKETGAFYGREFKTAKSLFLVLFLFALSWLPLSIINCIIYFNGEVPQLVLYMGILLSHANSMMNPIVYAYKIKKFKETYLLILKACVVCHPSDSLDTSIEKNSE
Nature of the test: Adenosine receptor binding: binding affinities at hA3 receptors ([125I]-AB MECA displacement). The settings on record: for Ki: read-out: Binding Affinity hA3-Ki; for Binding Selectivity A3/A2a: ratio of Ki values. The method, then:
[formula] Adenosine Receptor Binding: Binding Affinities at hA3 Receptors
The resultant homogenate was kept for immediate use in the binding assay.
Total binding was determined using drug dilution buffer (50 mM Tris-HCl pH 7.5, 10 mM MgCl2, 5% DMSO). Non-specific binding was determined using 10 μM IB-MECA. […] Filters were left to dry overnight, and Microscint-0 scintillation fluid was then added to the filters. The filters were then left for at least 2 hours before the radioactivity was assessed using a Canberra Packard TopCount microplate scintillation counter.
as §2, §3

[4] abbreviates: Table 2, comparative compounds of WO 02/055083.
Setting [5] is: Table 1, [3H]DPCPX displacement, CHO-K1 membranes.
Setting [6] is: Table 1, [3H]CGS-21680 displacement, HEK-293 membranes.
The mark [7] stands for this setting: Table 1, [3H]-ZM241385 displacement, HEK-293 membranes.
[8] abbreviates: Table 1, [125I]-AB MECA displacement, CHO-K1 membranes.

As for `CC(C)COCc1cccc(Cn2nnc3c(-c4ccco4)nc(N)nc32)n1` [WO 02/055083 Example 217, 7-(2-furyl)-3-(6-isobutyloxymethyl-2-pyridylmethyl)-3H-[1,2,3]triazolo[4,5-d]pyrimidine-5-amine, reference compound], the Ki (usually a measure of affinity in units of concentration, obtained from inhibition or displacement) was determined as 153 nM in test [1] (setting [4]), 2.9 nM in test [2] (setting [4]), 382 nM at hA2B receptors (setting [4]) and 475 nM in test [3] (setting [4]). Moreover, the “Binding Selectivity A1/A2a” value in test [1] (Table 2) is recorded as 53. Further, at hA2B receptors (Table 2), the “Binding Selectivity A2b/A2a” value was 131. Moreover, the “Binding Selectivity A3/A2a” value in test [3] (Table 2) amounted to 163.
For `Nc1nc(-c2ccccc2)c2nnn(Cc3cccc(C4(O)CCC4)n3)c2n1` [Example 11, 7-phenyl-3-(6-[1-hydroxycyclobutyl]pyrid-2-ylmethyl)-3H-[1,2,3]triazolo[4,5-d]pyrimidin-5-amine], the Ki came to 320 nM in test [1] (setting [5]), 5.2 nM in test [2] (setting [6]), 3270 nM on hA2B receptors (setting [7]) and 4300 nM in test [3] (setting [8]). The “Binding Selectivity A1/A2a” value in test [1] (Table 1) is 62. Besides, the “Binding Selectivity A2b/A2a” value on hA2B receptors (Table 1) amounted to 634. Besides, the “Binding Selectivity A3/A2a” value in test [3] (Table 1) worked out at 836.
`CC(C)OCc1cccc(Cn2nnc3c(-c4ccco4)nc(N)nc32)n1` [WO 02/055083 Example 247, 7-(2-furyl)-3-(6-isopropoxymethyl-2-pyridylmethyl)-3H-[1,2,3]triazolo[4,5-d]pyrimidine-5-amine, reference compound]: the inhibition constant Ki in test [1] (setting [4]) came to 276 nM; in test [2] (setting [4]) it was 3 nM; at hA2B receptors (setting [4]), 454 nM; in test [3] (setting [4]) it was 1460 nM. The “Binding Selectivity A1/A2a” value in test [1] (Table 2) is reported as 92. The “Binding Selectivity A2b/A2a” value at hA2B receptors (Table 2) came out at 151. The “Binding Selectivity A3/A2a” value in test [3] (Table 2) was determined as 487.
For `Cl.Nc1nc(-c2ccco2)c2nnn(Cc3cccc(CO)n3)c2n1` [WO 02/055083 Example 213, 7-(2-furyl)-3-(6-hydroxymethyl-2-pyridylmethyl)-3H-[1,2,3]triazolo[4,5-d]pyrimidine-5-amine hydrochloride, reference compound], the Ki in test [1] (setting [4]) amounted to 585 nM; in test [2] (setting [4]) it was 2.7 nM; on hA2B receptors (setting [4]) it was 271 nM; in test [3] (setting [4]), 1700 nM. Moreover, the “Binding Selectivity A1/A2a” value in test [1] (Table 2) was found to be 216. The “Binding Selectivity A2b/A2a” value at hA2B receptors (Table 2) is listed as 100. The “Binding Selectivity A3/A2a” value in test [3] (Table 2) was 625.
For `Nc1cccc(Cn2nnc3c(-c4ccccc4)nc(N)nc32)c1` [WO 02/055083 Example 151, 3-(3-aminobenzyl)-7-phenyl-3H-[1,2,3]triazolo[4,5-d]pyrimidine-5-amine, reference compound], the Ki in test [1] (setting [4]) was 102 nM; in test [2] (setting [4]) it was 5.3 nM; at hA2B receptors (setting [4]), 276 nM; in test [3] (setting [4]), 831 nM. Moreover, the “Binding Selectivity A1/A2a” value in test [1] (Table 2) is reported as 19. For the same compound, on hA2B receptors (Table 2), the “Binding Selectivity A2b/A2a” value worked out at 52. Besides, the “Binding Selectivity A3/A2a” value in test [3] (Table 2) came out at 156.
On to `COc1cccc(-c2nc(N)nc3c2nnn3Cc2cccc(C3(O)CCC3)n2)c1` [Example 17, 7-(3-methoxyphenyl)-3-(6-[1-hydroxycyclobutyl]pyrid-2-ylmethyl)-3H-[1,2,3]triazolo[4,5-d]pyrimidin-5-amine], for which the Ki in test [1] (setting [5]) was 386 nM; in test [2] (setting [6]), 9.9 nM; on hA2B receptors (setting [7]), 4690 nM; in test [3] (setting [8]), 1950 nM. In addition, in test [1] (Table 1), the “Binding Selectivity A1/A2a” value came out at 39. In addition, the “Binding Selectivity A2b/A2a” value at hA2B receptors (Table 1) worked out at 472. Besides, the “Binding Selectivity A3/A2a” value in test [3] (Table 1) is listed as 196.
`N#Cc1cccc(-c2nc(N)nc3c2nnn3Cc2cccc(C3(O)CCC3)n2)c1` [Example 23, 7-(3-cyanophenyl)-3-(6-[1-hydroxycyclobutyl]pyrid-2-ylmethyl)-3H-[1,2,3]triazolo[4,5-d]pyrimidin-5-amine]: the inhibition constant (Ki) was determined as 1330 nM in test [1] (setting [5]), 14.8 nM in test [2] (setting [6]) and 6820 nM at hA2B receptors (setting [7]). For the same compound, the “Binding Selectivity A1/A2a” value in test [1] (Table 1) is on record as 90. For the same compound, the “Binding Selectivity A2b/A2a” value at hA2B receptors (Table 1) came out at 462.
For the compound `COCc1cccc(Cn2nnc3c(-c4ccc(C)o4)nc(N)nc32)n1` [WO 02/055083 Example 183, 3-(6-methoxymethyl-2-pyridylmethyl)-7-(5-methyl-2-furyl)-3H-[1,2,3]triazolo[4,5-d]pyrimidine-5-amine, reference compound], the Ki is 84.1 nM in test [1] (setting [4]), 1.3 nM in test [2] (setting [4]), 231 nM at hA2B receptors (setting [4]) and 656 nM in test [3] (setting [4]). For the same compound, the “Binding Selectivity A1/A2a” value in test [1] (Table 2) is 67. Besides, on hA2B receptors (Table 2), the “Binding Selectivity A2b/A2a” value was 183. Also, the “Binding Selectivity A3/A2a” value in test [3] (Table 2) turned out to be 519.
For the compound `N#Cc1cccc(-c2nc(N)nc3c2nnn3Cc2cccc(C3(O)CCCC3)n2)c1` [Example 21, 7-(3-cyanophenyl)-3-(6-[1-hydroxy-1-cyclopentyl]pyrid-2-ylmethyl)-3H-[1,2,3]triazolo[4,5-d]pyrimidin-5-amine], the Ki was 2390 nM in test [1] (setting [5]), 23.9 nM in test [2] (setting [6]) and 2050 nM at hA2B receptors (setting [7]). Besides, in test [1] (Table 1), the “Binding Selectivity A1/A2a” value is given as 100. Further, the “Binding Selectivity A2b/A2a” value on hA2B receptors (Table 1) worked out at 86.
As for `Nc1nc(-c2ccccc2)c2nnn(Cc3cccc(CO[C@H]4CCOC4)n3)c2n1` [Example 7, S-7-phenyl-3-(6-[tetrahydrofuran-3-yl]oxymethylpyrid-2-ylmethyl)-3H-[1,2,3]triazolo[4,5-d]pyrimidin-5-amine], the Ki in test [1] (setting [5]) is 731 nM; in test [2] (setting [6]) it was 13.4 nM; at hA2B receptors (setting [7]), 1240 nM. Moreover, the “Binding Selectivity A1/A2a” value in test [1] (Table 1) turned out to be 54. For the same compound, the “Binding Selectivity A2b/A2a” value on hA2B receptors (Table 1) was found to be 93. Moreover, in test [3] (Table 1), the “Binding Selectivity A3/A2a” value came out at 634.
